Results on 14 molecules are retold here after paper PMC9137581, “Identification of a Novel Class of Anti-Melanogenic Compounds, (Z)-5-(Substituted benzylidene)-3-phenyl-2-thioxothiazolidin-4-one Derivatives, and Their Reactive Oxygen Species Scavenging Activities” (Antioxidants, 2022).

Each structure is given as a SMILES string. Read-outs that look alike come from different tables or passages of the source.

Experiment [1] deals with UVB-irradiated HRM2 hairless mice. Set-up: method as in PMID 30554432. To be noted: ref [31]; cited from earlier work.
In experiment [2] the target is mushroom tyrosinase. Particulars: read-out: IC50 against mushroom tyrosinase, cited from earlier work.
The target in experiment [3] is T1, mushroom tyrosinase (Agaricus bisporus, UniProt C7FF04).
T1 construct: purchased Sigma-Aldrich
T1 sequence (C7FF04 1-392 limits assumed): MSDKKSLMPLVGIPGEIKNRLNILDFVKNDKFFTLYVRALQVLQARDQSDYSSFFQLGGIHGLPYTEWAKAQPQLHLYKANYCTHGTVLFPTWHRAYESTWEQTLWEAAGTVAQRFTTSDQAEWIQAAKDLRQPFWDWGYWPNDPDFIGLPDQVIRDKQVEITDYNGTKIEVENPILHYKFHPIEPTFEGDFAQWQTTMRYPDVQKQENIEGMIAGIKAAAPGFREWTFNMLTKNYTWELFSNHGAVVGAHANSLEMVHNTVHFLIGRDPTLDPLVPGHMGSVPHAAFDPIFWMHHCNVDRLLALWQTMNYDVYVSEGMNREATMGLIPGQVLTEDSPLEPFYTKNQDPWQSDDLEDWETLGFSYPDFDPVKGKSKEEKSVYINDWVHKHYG
The experiment is described as follows: Mushroom tyrosinase inhibition assay (L-tyrosine substrate). Particulars: L-tyrosine substrate; means ± SEMs of triplicate determinations. The format is biochemical. The protocol:
In order to examine the inhibitory effect of the (Z)-BPTT analogs on tyrosinase activity, commercially available mushroom tyrosinase (Sigma-Aldrich, St. Louis, MO, USA) was used. The mushroom tyrosinase-inhibitory activities of the analogs were determined as described previously with modification. Briefly, 20 µL (20 units) of an aqueous mushroom tyrosinase solution was added to each well of a 96-well microplate containing 170 µL of a substrate mixture consisting of 345 μM of L-tyrosine solution, 17.2 mM phosphate buffer (pH 6.5), and 10 µL of a (Z)-BPTT analog solution at different concentrations or 10 µL of a kojic acid solution (2, 10, or 50 μM). After incubating the assay mixtures for 30 min at 37 °C, the remaining tyrosinase activities were calculated from the amounts of dopachrome that were formed as determined by measuring their absorbance at 492 nm using a microplate reader (VersaMax™, Molecular Devices, Sunnyvale, CA, USA). The curves of the IC50 values that were derived from the X-axis of the inhibitor concentration versus the amount of product that was produced were determined by aligning the dose–response curve with the Y-axis. Inhibition experiments were performed in triplicate using three to six different concentrations of the (Z)-BPTT analogs or kojic acid. Log–linear curves and their equations were determined by using inhibition percentages at three to six analog concentrations. The individual IC50 values were determined by reading the concentrations on the Y-axis at 50% inhibition. The results are the means of three independent experiments.
The tyrosinase-inhibitory activities were screened against mushroom tyrosinase using L-tyrosine as a substrate, as previously described. Kojic acid, a representative tyrosinase inhibitor, was used as a positive control. […]. All 13 of the (Z)-BPTT analogs inhibited tyrosinase activity in a concentration-dependent manner. The IC50 values are shown in Table 2, along with the analog substitutions.

Experiment [4] in a line: DPPH radical scavenging activity assay. Particulars: 1 mM, 30 min in the dark. The protocol:
The effects of the (Z)-BPTT analogs 1–13 on DPPH radical scavenging activities were investigated as previously described with slight modification. Briefly, 180 μL of 0.2 mM DPPH in methanol was added to 96-well plates and then 20 μL of one of the (Z)-BPTT analogs 1–13 (10 mM in DMSO) or the positive control (10 mM L-ascorbic acid in distilled water) was added and mixed. The 96-well plates were incubated in the dark for 30 min and then the well optical densities were measured at 517 nm using a VersaMax™ microplate reader (Molecular Devices, Sunnyvale, CA, USA). All of these experiments were performed independently in triplicate. The DPPH radical scavenging activities of the analogs were calculated using the following formula:Scavenging activity (%) = (Ac − As) × 100/Ac where Ac is the optical density of the non-treated control and As is the optical density of the tested material.
The DPPH (2,2-diphenyl-1-picrylhydrazyl) radical scavenging abilities of the (Z)-BPTT analogs were investigated using L-ascorbic acid (vitamin C) as a positive control. The final concentrations of the analogs and of the positive control in the test samples and in the DPPH methanol solution were 1 and 0.18 mM, respectively. The scavenging activities of the analogs were assessed by measuring their optical densities at 517 nm after standing the samples in the dark for 30 min.
In general terms: The DPPH test is a chemical assay of radical scavenging.

Experiment [5] can be described thus: ABTS free radical scavenging activity assay. To be noted: 100 µM, 2 min in the dark. The protocol: ABTS free radical scavenging activity was used to evaluate the antioxidant activities of analogs 1–13, as previously described. […] This ABTS free radical solution was then diluted with absolute methanol to an absorbance of 0.70 ± 0.02 at 734 nm. Aliquots (10 µL) of the test samples (10% DMSO + 90% EtOH) were added at a final concentration of 100 µM to 90 µL of the diluted ABTS free radical solution and incubated for 2 min in the dark at room temperature. Absorbances were then measured at 734 nm using a VersaMax™ microplate reader (Molecular Devices, Sunnyvale, CA, USA). The ABTS free radical scavenging activities of the test analogs were calculated using the following formula:Scavenging activity (%) = (Ac − As) × 100/Ac where Ac is the optical density of the non-treated control and As is the optical density of the tested material.
The effects of analogs 1–13 on ABTS (2,2′-azino-bis(3-ethylbenzothiazoline-6-sulfonic acid)) free radical scavenging activity were investigated using trolox as a positive reference control. The concentrations of the analogs and trolox in the test samples were 100 µM. The free radical scavenging activities were assessed by measuring the optical densities at 734 nm after standing in the dark for 2 min. […] Analogs 7–10, with no hydroxyl groups on the β-phenyl ring, had weak ABTS and DPPH radical scavenging activities.

Experiment [6] concerns B16F10 murine melanoma cells. Set-up: method as in PMID 34356311. To be noted: ref [32]; cited from earlier work.
In experiment [7] the test system is B16F10 cells. The experiment is described as follows: Melanin content assay in α-MSH plus IBMX-stimulated cells. It is filed as cell-based, murine. To be noted: 48 h, B16F10 cells. The protocol: Briefly, B16F10 cells were seeded at a density of 1 × 10^5 cells per well in 6-well plates and allowed to adhere to the well bases under the same conditions that were used for cell culturing. […] In order to determine the melanin contents, the B16F10 cells that were exposed to α-MSH and IBMX for 48 h were rinsed with PBS twice and incubated in 200 µL of 1 N NaOH solution containing 10% dimethyl sulfoxide (DMSO) for 1 h at 60 °C. The cell lysates were transferred to a 96-well plate and the absorbances at 405 nm were measured using a microplate reader (VersaMax™, Molecular Devices, Sunnyvale, CA, USA). These experiments were performed individually in triplicate. B16F10 cells were seeded in 6-well culture plates and pretreated with analogs 1, 3, and 6 at concentrations of 0, 5, 10, or 20 µM and with analog 2 at 0, 2.5, 5, or 10 µM for 1 h. α-Melanocyte-stimulating hormone (α-MSH; 1 µM) and 3-isobutyl-1-methylxanthine (IBMX; 200 µM) were added sequentially in order to enhance melanin production. After incubation for 48 h at 37 °C, the melanin contents were assessed by measuring the well optical densities at 405 nm using a microplate reader. Kojic acid (10 or 20 µM) was used as a positive control.

For orientation: IC50 means the concentration that inhibits the measured activity by half. Take `COc1ccc(/C=C2\SC(=S)NC2=O)cc1O` [5-HMT, (Z)-5-(3-hydroxy-4-methoxybenzylidene)-2-thioxothiazolidin-4-one]: in experiment [1], the “skin effect in vivo” value is given as “skin-lighting effect”. Moreover, the IC50 in experiment [2] (ref [31]) was 18.1 ± 1 µM.
For `COc1cc(/C=C2\SC(=S)N(c3ccccc3)C2=O)ccc1O` [Analog 4, (Z)-5-(4-Hydroxy-3-methoxybenzylidene)-3-phenyl-2-thioxothiazolidin-4-one], in experiment [3], the IC50 is 80 ± 3.3 µM. Also, in experiment [4], the “DPPH radical scavenging activity” value worked out at 78.7%. In addition, in experiment [5], the “ABTS free radical scavenging activity” value amounted to 61.5%.
For `CCOc1cc(/C=C2\SC(=S)N(c3ccccc3)C2=O)ccc1O` [Analog 5, (Z)-5-(3-Ethoxy-4-hydroxybenzylidene)-3-phenyl-2-thioxothiazolidin-4-one] the same measures were over 200 µM, 77.5% and 51.2%.
As to `COc1ccc(/C=C2\SC(=S)N(c3ccccc3)C2=O)cc1` [Analog 7, (Z)-5-(4-Methoxybenzylidene)-3-phenyl-2-thioxothiazolidin-4-one], the IC50 in experiment [3] is over 200 µM.
Turning to `COc1ccc(/C=C2\SC(=S)N(c3ccccc3)C2=O)cc1OC` [Analog 8, (Z)-5-(3,4-Dimethoxybenzylidene)-3-phenyl-2-thioxothiazolidin-4-one], the IC50 in experiment [3] amounted to 94.3 ± 7.7 µM.
On the same count and under the same terms, the figure for `COc1ccc(/C=C2\SC(=S)N(c3ccccc3)C2=O)c(OC)c1` [Analog 9, (Z)-5-(2,4-Dimethoxybenzylidene)-3-phenyl-2-thioxothiazolidin-4-one] is 22.1 ± 4.23 µM; for `COc1cc(/C=C2\SC(=S)N(c3ccccc3)C2=O)cc(OC)c1OC` [Analog 10, (Z)-3-Phenyl-2-thioxo-5-(3,4,5-trimethoxybenzylidene)thiazolidin-4-one] it is over 200 µM.
Molecule `COc1cc(/C=C2\SC(=S)N(c3ccccc3)C2=O)cc(OC)c1O` [Analog 11, (Z)-5-(4-Hydroxy-3,5-dimethoxybenzylidene)-3-phenyl-2-thioxothiazolidin-4-one] had an IC50 in experiment [3] of over 200 µM. In experiment [5], the “ABTS free radical scavenging activity” value was 57.2%.
As to `O=C1/C(=C/c2ccc(O)c(Br)c2)SC(=S)N1c1ccccc1` [Analog 12, (Z)-5-(3-Bromo-4-hydroxybenzylidene)-3-phenyl-2-thioxothiazolidin-4-one], the midpoint of inhibition in experiment [3], the IC50, lay at 65.5 ± 9.4 µM. In addition, the “ABTS free radical scavenging activity (in words)” value in experiment [5] is “did not influence”.
As to `O=C1/C(=C/c2cc(Br)c(O)c(Br)c2)SC(=S)N1c1ccccc1` [Analog 13, (Z)-5-(3,5-Dibromo-4-hydroxybenzylidene)-3-phenyl-2-thioxothiazolidin-4-one], in experiment [3], the midpoint of inhibition, the IC50, lay at 78.8 ± 8.63 µM. The “ABTS free radical scavenging activity (in words)” value in experiment [5] is on record as “slightly decreased”.
Consider `O=c1/c(=C/c2ccc(O)cc2O)sc2nc3ccccc3n12` [Compound I, (Z)-2-(2,4-dihydroxybenzylidene)benzo[4,5]imidazo[2,1-b]thiazol-3(2H)-one], for which the IC50 in experiment [2] (ref [32]) was 5 ± 0.38 µM. The effects in cells result in experiment [6] was “anti-tyrosinase and anti-melanogenic effects”.
As to `O=C1O[C@H]([C@@H](O)CO)C(O)=C1O` [L-ascorbic acid, reference compound], in experiment [4], the “DPPH radical scavenging activity” value came out at 96.9%.
As for `O=c1cc(CO)occ1O` [kojic acid, reference compound], the “reduction of α-MSH plus IBMX-induced increase in melanin content” value is listed as 21.8% in experiment [7] (10 µM) and 22.9% in experiment [7] (20 µM).
Take `Cc1c(C)c2c(c(C)c1O)CCC(C)(C(=O)O)O2` (stereo not drawn) [trolox, reference compound]: the “ABTS free radical scavenging activity” value in experiment [5] was determined as 99.8%.
